The results in this text go back to ChEMBL document CHEMBL3046076, “3D-QSAR CoMFA and CoMSIA studies on a set of diverse 1a-adrenergic receptor antagonists” (Med Chem Res, 2011).

This test deals with T1, Alpha-1A adrenergic receptor (Homo sapiens, UniProt P35348).
T1 sequence (P35348 whole entry): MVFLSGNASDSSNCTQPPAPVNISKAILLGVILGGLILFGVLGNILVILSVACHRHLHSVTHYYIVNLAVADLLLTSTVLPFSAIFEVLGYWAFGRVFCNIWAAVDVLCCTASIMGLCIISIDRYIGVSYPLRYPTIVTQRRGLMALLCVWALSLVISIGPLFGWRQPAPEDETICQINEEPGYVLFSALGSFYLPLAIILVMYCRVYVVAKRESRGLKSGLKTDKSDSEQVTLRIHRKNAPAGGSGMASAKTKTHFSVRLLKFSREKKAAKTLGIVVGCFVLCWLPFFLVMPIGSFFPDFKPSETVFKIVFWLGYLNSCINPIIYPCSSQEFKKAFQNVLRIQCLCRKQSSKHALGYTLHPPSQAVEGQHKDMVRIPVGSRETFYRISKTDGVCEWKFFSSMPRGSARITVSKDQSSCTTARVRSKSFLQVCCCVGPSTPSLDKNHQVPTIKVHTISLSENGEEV
Nature of the test: Binding affinity to adrenergic alpha1A receptor (unknown origin).

As to `COc1cc2nc3c(c(N)c2cc1OC)CC(CNC(=O)c1ccoc1)C3` (stereo unspecified), where the note is “read-out: Ki”, the Ki stood at 158 nM.
On to `c1ccc(OCCN[C@H]2CO[C@H](c3ccccc3)CO2)cc1`, for which the Ki (read-out: Ki) is 537 nM.
On the same count and under the same terms, then `COc1cccc(OC)c1OCCN[C@H]1C[C@@H](c2ccccc2)c2ccccc2O1`, with 0.05 nM.
Same read-out and setting: then `c1ccc(OCCNC2COC(c3ccccc3)(c3ccccc3)CO2)cc1` (stereo unspecified), with 224 nM; and `COc1cc2nc3c(c(N)c2cc1OC)CCC(CNCOc1c(OC)cccc1OC)C3` (stereo unspecified), with 1700 nM; and `COc1ccccc1N1CCN(CC2CO[C@H](c3ccccc3)O2)CC1` (stereo partly specified), with 28.8 nM.
As to `O=C1CC2(C=CN1CCN1CCN(c3ccccc3Cl)CC1)CCCC2`, the Ki reads like this: (read-out: Ki) 43.1 nM; (read-out: pKi (converted)) 43.7 nM.
As to `c1ccc(OCCNC2COCC(c3ccccc3)(c3ccccc3)O2)cc1` (stereo unspecified), the Ki (read-out: Ki) came out at 170 nM.
For `Cc1ccc(C)c(N2CCN(CCN3C(=O)CC4(CCCC4)CC3=O)CC2)c1`, the Ki (read-out: Ki) came out at 95.4 nM.
Same read-out and setting: then `Cc1ccc(Cl)c(N2CCN(CCN3C(=O)CC4(CCCC4)CC3=O)CC2)c1`, with 100 nM.
The same measure, in the same setting: then `N#Cc1ccccc1N1CCN(CCN2C(=O)CC3(CCCC3)CC2=O)CC1`, with 171 nM; and `COc1ccccc1OCCNC1COC(c2ccccc2)(c2ccccc2)CO1` (stereo unspecified), with 74.1 nM; and `CN(CCOc1ccccc1)CC1COC(c2ccccc2)(c2ccccc2)O1` (stereo unspecified), with 33.9 nM.
For the compound `COc1cccc(OC)c1OCCN[C@H]1CO[C@H](c2ccccc2)CO1`, the Ki (read-out: Ki) turned out to be 513 nM.
For `COc1ccccc1N1CCN(CC2COC3(CCCCC3)O2)CC1` (stereo unspecified), the Ki (read-out: Ki) is 91.2 nM.
For `CC(CN1CCN(c2cc(Cl)ccc2Cl)CC1)N1C(=O)CC2(CCCC2)CC1=O` (stereo unspecified), the Ki is 149 nM (read-out: Ki) and 151 nM (read-out: pKi (converted)).
On to `COc1cccc(OC)c1OCCN[C@H]1C[C@H](c2ccccc2)c2ccccc2S1`, for which, where the note is “read-out: Ki”, the Ki stood at 2.34 nM.
With `COc1cccc(OC)c1OCCN[C@H]1C[C@@H](c2ccccc2)c2ccccc2S1`, the Ki (read-out: Ki) was found to be 0.08 nM and the Ki (read-out: pKi (converted)) was 0.0891 nM.
For the compound `O=C1CC2(CCCC2)CCN1CCN1CCN(c2ccccc2Cl)CC1`, the Ki (read-out: Ki) was found to be 70 nM.
As to `COc1cccc(OC)c1OCCNC1COCC(c2ccccc2)(c2ccccc2)O1` (stereo unspecified), the Ki (read-out: Ki) was found to be 339 nM.
For the compound `COc1cc2nc3c(c(N)c2cc1OC)CCC(CNC(=O)c1ccoc1)C3` (stereo unspecified), the Ki (read-out: Ki) is 95.5 nM and the Ki (read-out: pKi (converted)) is 2570 nM.
For `COc1ccccc1N1CCN(CC2CO[C@@H](c3cccc4ccccc34)O2)CC1` (stereo partly specified), the Ki (read-out: Ki) turned out to be 36.3 nM.
Same read-out and setting: the same measure for `O=C1CC2(CCCC2)CC(=O)N1CCCCN1CCN(c2cc(Cl)ccc2Cl)CC1`: 1.45 nM; for `COc1cccc(OC)c1OCCNC[C@@H]1C(=O)c2ccccc2C[C@H]1c1ccccc1`: 8.7 nM.
On the same count and under the same terms, the same measure for `CC(C)Oc1ccccc1N1CCN(CCN2C(=O)CC3(CCCC3)CC2=O)CC1`: 2.83 nM; for `O=C1CC2(CCCC2)CC(=O)N1CCN1CCN(c2cc(F)ccc2Cl)CC1`: 86.2 nM; for `O=C1CC2(CCCC2)CC(=O)N1CCN1CCN(c2ccccc2)CC1`: 2680 nM.
Still for that read-out and setting: then `COc1ccccc1N1CCN(CC(O)COc2cccc3ccccc23)CC1` (stereo unspecified) [NAFTOPIDIL], with 5.88 nM; and `COc1ccccc1N1CCN(CC2CO[C@H](c3cccc4ccccc34)O2)CC1` (stereo partly specified), with 7.94 nM.
Regarding `COc1cccc(OC)c1OCCN[C@H]1COC[C@H](c2ccccc2)O1`, where the note is “read-out: Ki”, the Ki was 468 nM.
On the same count and under the same terms, the same measure for `O=C1CC2(CCCC2)CC(=O)N1CCN1CCCN(c2ccccc2Cl)CC1`: 236 nM; for `O=C1CC2(CCCC2)C(=O)N1CCN1CCN(c2cc(Cl)ccc2Cl)CC1`: 54.6 nM.
With `N#Cc1ccc(Cl)cc1N1CCN(CCN2C(=O)CC3(CCCC3)CC2=O)CC1`, the Ki (read-out: Ki) came out at 403 nM and the Ki (read-out: pKi (converted)) is 407 nM.
Regarding `C[N+](C)(CCOc1ccccc1)CC1COC(c2ccccc2)(c2ccccc2)O1` (stereo unspecified), where the note is “read-out: Ki”, the Ki came to 24.5 nM.
Still for that read-out and setting: the same measure for `c1ccc(OCCN[C@H]2COC[C@H](c3ccccc3)O2)cc1`: 407 nM; for `COc1ccccc1N1CCN(CCN2C=CC3(CCCC3)CC2=O)CC1`: 23.4 nM.
